Experiment: method code SF-HPLC, from DOI: 10.1111/j.2042-7158.1987.tb06262.x, PMID: 2884287
Settings: pH 3.0

SMILES | logD
Cn1c(=O)[nH]c2[nH]c(=O)[nH]c2c1=O | -0.57
Cn1c(=O)[nH]c2[nH]c(=O)[nH]c(=O)c21 | -1.18
Cn1c(=O)[nH]c(=O)c2c1[nH]c(=O)n2C | -1.33
Cn1c(=O)[nH]c2nc[nH]c2c1=O | -0.27
CN(C=O)c1c(N)[nH]c(=O)n(C)c1=O | -2.03
Cn1c(=O)[nH]c2[nH]c(=O)n(C)c2c1=O | -0.22
Cn1c(=O)[nH]c(=O)c2[nH]c(=O)[nH]c21 | -1.08
CN(C=O)c1c(N)n(C)c(=O)n(C)c1=O | -1.32
Cn1cnc2[nH]c(=O)[nH]c(=O)c21 | -0.89
Cn1c(=O)c2c([nH]c(=O)n2C)n(C)c1=O | -0.37
CN(C=O)c1c(N)n(C)c(=O)[nH]c1=O | -1.3
Cn1c(N)c(NC=O)c(=O)n(C)c1=O | -0.64
Cn1c(=O)c2[nH]c(=O)[nH]c2n(C)c1=O | -0.52

— the SangsterLogP compilation
